Positions count from the first letter of the chain named.
Assays:
Assay type in all cases: cell-based
AR protein [1] = target: T1, AR protein (Homo sapiens, UniProt P10275, T878A); test: Degradation of AR protein in LNCaP cells (Western blot); settings: LNCaP cells, 8 hours, Western blot grayscale, GAPDH internal reference; for inhibition at 0.01 µM: compound 10 nM, read-out: Degradation rates of the AR protein in LNCaP cells, 10 nM (%); for inhibition at 0.1 µM: compound 100 nM, read-out: Degradation rates of the AR protein in LNCaP cells, 100 nM (%)
T1 construct: degradation activity of the compounds disclosed in the present disclosure on AR protein in LNCaP cells; host or cells: LNCaP FGC
T1 sequence (P10275 1-920 T878A): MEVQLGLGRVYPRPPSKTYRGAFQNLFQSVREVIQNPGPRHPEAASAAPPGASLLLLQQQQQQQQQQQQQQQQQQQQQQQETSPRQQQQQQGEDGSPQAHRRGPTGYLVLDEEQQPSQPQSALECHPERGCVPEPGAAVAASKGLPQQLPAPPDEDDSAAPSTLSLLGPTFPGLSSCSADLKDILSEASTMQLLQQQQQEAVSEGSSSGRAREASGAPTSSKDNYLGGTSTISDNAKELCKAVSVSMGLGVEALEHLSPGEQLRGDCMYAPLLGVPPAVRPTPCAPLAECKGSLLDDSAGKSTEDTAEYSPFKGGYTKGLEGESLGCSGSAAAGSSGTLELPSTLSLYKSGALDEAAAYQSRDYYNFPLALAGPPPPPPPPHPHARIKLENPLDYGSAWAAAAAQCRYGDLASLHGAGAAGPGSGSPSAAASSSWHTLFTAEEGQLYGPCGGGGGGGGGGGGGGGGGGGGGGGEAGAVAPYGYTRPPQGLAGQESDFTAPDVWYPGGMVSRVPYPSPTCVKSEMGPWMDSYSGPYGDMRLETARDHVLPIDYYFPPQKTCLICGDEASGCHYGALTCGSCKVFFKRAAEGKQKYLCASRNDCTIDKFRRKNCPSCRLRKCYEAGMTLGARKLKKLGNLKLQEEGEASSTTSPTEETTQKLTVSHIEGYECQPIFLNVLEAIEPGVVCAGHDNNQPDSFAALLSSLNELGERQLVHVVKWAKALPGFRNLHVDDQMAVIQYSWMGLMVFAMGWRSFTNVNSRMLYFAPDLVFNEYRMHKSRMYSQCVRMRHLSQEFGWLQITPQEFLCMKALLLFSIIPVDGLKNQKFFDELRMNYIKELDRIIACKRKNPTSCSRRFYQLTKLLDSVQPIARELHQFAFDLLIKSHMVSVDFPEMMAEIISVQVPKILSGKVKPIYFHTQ
Procedure, shortened: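 Percent AR degradation was derived from GAPDH-normalised Western blot band intensities (infrared detection) in LNCaP lysates.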

AR protein [2] = target: T2, AR protein (Homo sapiens, UniProt P10275); test: Degradation of AR protein in VCaP cells (Western blot); settings: 8 hours; for inhibition at 0.01 µM: compound at 10 nM, read-out: Degradation rate of the AR protein in VCaP cells, 10 nM (%); for inhibition at 0.1 µM: compound at 100 nM, read-out: Degradation rate of the AR protein in VCaP cells, 100 nM (%)
T2 construct: degradation activity of the compounds disclosed in the present disclosure on AR protein in VCaP cells; host or cells: VCaP
T2 sequence (P10275 1-920): T1 sequence (P10275 1-920 T878A) with A878T
Procedure, shortened: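 Western blot readout: AR band grayscale normalised to GAPDH, used to derive degradation rate. Lysates came from VCaP cells exposed to compound for 8 h, with solvent controls run in parallel.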

VCaP cells = test: Inhibition of proliferation of VCaP cells (WST-8); settings: Homo sapiens; VCaP cells, 168 hours, WST-8 absorbance at 450 nm; read-out: IC50 for inhibiting the proliferation of VCaP cells
Procedure, shortened: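 Proliferation was read by WST-8 on day nine. Cells were VCaP FGC, seeded at 15000 cells per well in 10% FBS DMEM and kept at 37° C with 5% CO2.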

LNCaP FGC cells = test: Inhibition of proliferation of LNCaP cells (WST-8); settings: Homo sapiens, LNCaP, 96 h, LNCaP FGC cells, 96 hours, WST-8 absorbance at 450 nm; read-out: IC50 for inhibiting the proliferation of LNCaP cells
Protocol: The cells were cultured in a cell culture incubator with 5% CO2 at 37° C. overnight. […] On the sixth day, 96 well plates were taken out, and 20 μL of WST-8 (Beytime, C0040) reagent was added to each well.

Row | Structure (SMILES) | inhibition at 0.01 µM (AR protein [1]) [%] | inhibition at 0.1 µM (AR protein [1]) [%] | inhibition at 0.01 µM (AR protein [2]) [%] | inhibition at 0.1 µM (AR protein [2]) [%] | IC50 (VCaP cells) [µM] | IC50 (LNCaP FGC cells) [µM]
1 | COc1cc(O[C@H]2C(C)(C)[C@H](NC(=O)c3ccc(N4CCC(F)(CN5CCC6(CC5)COc5cc7c(cc56)C(=O)N(C5CCC(=O)NC5=O)C7=O)CC4)cc3)C2(C)C)ccc1C#N (stereo partly drawn) [Compound 273] | 2 | 26 | -20 | 7 | 0.97 | 96.4
2 | COc1cc(O[C@H]2C(C)(C)[C@H](NC(=O)c3ccc(N4CCC(F)(CN5CCC6(CC5)COc5c6ccc6c5C(=O)N(C5CCC(=O)NC5=O)C6=O)CC4)cc3)C2(C)C)ccc1C#N (stereo partly drawn) [Compound 275] | 30 | 54 | 7 | 51 | 0.02 | 0.24
3 | COc1cc(O[C@H]2C(C)(C)[C@H](NC(=O)c3ccc(N4CCC(CN5CCC6(CCc7cc8c(cc7O6)C(=O)N(C6CCC(=O)NC6=O)C8=O)CC5)CC4)cc3)C2(C)C)ccc1C#N (stereo partly drawn) [Compound 276] | 55 | 67 | -11 | 59 | 0.035 | 8.81
4 | COc1cc(O[C@H]2C(C)(C)[C@H](NC(=O)c3ccc(N4CCC(CN5CC6(CCc7cc8c(cc7O6)C(=O)N(C6CCC(=O)NC6=O)C8=O)C5)CC4)cc3)C2(C)C)ccc1C#N (stereo partly drawn) [Compound 277] | 16 | 60 | 7 | 54 | 0.073 | 10.7
5 | COc1cc(O[C@H]2C(C)(C)[C@H](NC(=O)c3ccc(N4CCC(CN5CC6(CCc7ccc8c(c7O6)C(=O)N(C6CCC(=O)NC6=O)C8=O)C5)CC4)cc3)C2(C)C)ccc1C#N (stereo partly drawn) [Compound 278] | -3 | 34 | -30 | -16 | 9.2 | 60
6 | COc1cc(OC2C(C)(C)C(NC(=O)c3ccc(N4CCC(CN5CCC6(CC5)COc5cc7c(cc56)C(=O)N(C5CCC(=O)NC5=O)C7=O)CC4)cc3)C2(C)C)ccc1C#N (stereo not drawn) [Compound 280] | 36 | 52 | 15 | 77 | 0.045 | 9.25
7 | COc1cc(O[C@H]2C(C)(C)[C@H](NC(=O)c3ccc(N4CCC(C)(CN5CCC6(CCc7cc8c(cc7O6)CN(C6CCC(=O)NC6=O)C8=O)CC5)CC4)cc3)C2(C)C)ccc1C#N (stereo partly drawn) [Compound 281] | 20 | 56 | -11 | 60 | 0.004 | 2.14
8 | COc1cc(O[C@H]2C(C)(C)[C@H](NC(=O)c3ccc(N4CCC(C)(CN5CCC6(CCc7ccc8c(c7O6)CN(C6CCC(=O)NC6=O)C8=O)CC5)CC4)cc3)C2(C)C)ccc1C#N (stereo partly drawn) [Compound 283] | 53 | 66 | 2 | 45 | 0.013 | 97.6

— patent US20260234157A1, “COMPOUND AND METHOD FOR TARGETED DEGRADATION OF ANDROGEN RECEPTOR” (Gan & Lee Pharmaceuticals Co., Ltd., priority 2023, published 2026)
